Laboratory results: patent US20200392223A1, “IL-17A ACTIVITY INHIBITOR AND USE THEREOF” (TOKAI UNIVERSITY EDUCATIONAL SYSTEM, priority 2018, published 2020)

Legend:
[1] = test system: rat nucleus pulposus (NP) cell; experiment: mRNA expression (real time RT-PCR) in rat NP cells treated with IL-17A under 1% oxygen; type: cell-based; details: 24 hours
Protocol: Nucleus pulposus cells were separated from a Sprague Dawley rat aged 11 weeks according to a method in Risbud et al (Journal of cellular biochemistry 98, 152-159, 2006; doi:10.1002/jcb.20765). In short, lumbar and coccygeal intervertebral discs of a deeply anesthetized rat were dissected under an aseptic condition, gel-like nucleus pulposus was separated from intervertebral disc annulus fibrosus (AF), the nucleus pulposus was minced and pipetted, and then the nucleus pulposus was cultured in a Dulbecco's Modified Eagle Medium (DMEM) in which 20% FBS and antibiotics were added at 20% O2, 5% CO2, and 37° C. for about 1 to 2 weeks, and then was cultured in DMEM in which 10% FBS and antibiotics were added for about 1 to 2 weeks.
The cultured rat nucleus pulposus cells were treated with 20 or 50 ng/mL of recombinant mouse IL-17A (Pepro Tech Inc., USA, #210-17) for 24 hours, expression levels of mRNAs of IL-6, COX-2, mPGES1, MMP-3, and MMP-13 were determined by real time RT-PCR according to the following procedure. Total RNA was extracted from the nucleus pulposus cells using an RNAeasy mini-column (Qiagen, Germany). Before elution from the column, RNA was treated with RNase-Free DNase I (Qiagen, Germany). The purified DNA-free RNA was transformed into cDNA using a High Capacity cDNA Reverse Transcription Kit (Applied Biosystems, USA). Template cDNA and a primer specific to each gene were added to Power SYBR Green master mix (Applied Biosystems) and an expression level of mRNA of each gene was determined using Step One Plus Real-time PCR System (Applied Biosystems). The expression level was normalized to β actin. It was verified by melting curve analysis that RT-PCR was specific and a primer dimer was not formed. […]
In (B) and (C), among the compounds of the present invention, only the compound (3) which is considered from the results of (A) described below to have the highest effect on IL-6 and COX-2 was used.
A p38 phosphorylation inhibitor “SB203580” with a concentration of 10 μM, a JNK phosphorylation inhibitor “SP600125” with a concentration of 10 μM, or an ERK phosphorylation inhibitor “PD98059” with a concentration of 10 μM was administered to rat NP cells together with recombinant mouse IL-17A with a concentration of 50 ng/ml, or alternatively, these inhibitors were not administered, and the cells were cultured under a 1% oxygen condition for 24 hours, and an expression level of mRNA of each of COX-2 and IL-6 was determined by real time RT-PCR according to the same procedure as that of [Reference Example 2]. […]

[2] = test system: p38; experiment: Phosphorylation of MAPK factors (western blotting) in rat NP cells treated with IL-17A; type: cell-based; details: 50 μg/ml + IL-17A 50 ng/ml, 1% oxygen
Protocol: In rat nucleus pulposus cells subjected to treatment for 24 hours in 50 ng/mL of IL-17A in which the most remarkable increases of IL-6 and COX-2 were observed, an expression level of a protein of each of IL-6 and COX-2, and β actin used as a control was determined by western blotting according to the following procedure. The nucleus pulposus cells were placed on ice and then washed with ice-cold PBS. In order to prepare total cell proteins, the cells were lysed with a lysis buffer containing 10 mM Tris-HCl (pH 7.6), 50 mM NaCl, 5 mM EDTA, 1% Nonidet P-40, a complete protease inhibitor cocktail (Roche AG, USA), 1 mM NaF, and 1 mM Na3VO4. The proteins were fractionated by SDS-PAGE and transferred onto Immobilon-P polyvinylidene difluoride membrane (Millipore Corporation, USA). […] Western blotting data were quantified by densitometric scanning of a film using Macintosh computer software “CS Analyzer” (ATTO Corporation, Japan). […]
It is reported that IL-17A is likely to be involved in the expression of COX-2 through a MAPK pathway. Involvement of IL-17A in MAPK factors (p38, JNK, and ERK) with respect to the expression of each of COX-2 and IL-6, and influence of the compound (1) of the present invention on these MAPK factors were evaluated by the following method. […]

[3] = test system: mouse psoriasis skin model; experiment: Mouse psoriasis skin model (imiquimod cream); type: in vivo
Protocol: About 1×1.5 cm of back of 10-week-old male BJ6J mouse was shaved, and imiquimod (IMQ, a drug causing psoriasis-like dermatitis in a mouse) cream was applied every day from day 1 to day 4. From the 5th day (day 5) after the first IMQ cream application, 6 to 8 hours after the application of the IMQ cream, a DMSO solution containing 1 mg of the compound (3) (database registration name: STK630921) was applied (STK group=compound (3) treated group). The same IMQ cream and the solution of the compound (3) were applied every day from the 6th day (day 6) to the 9th day (day 9). […]
On the 10th day (day 10), skin of the mice in each of the STK group, the Sham group, the IMQ group, and the normal group was collected, and one sample obtained by hematoxylin eosin (HE) staining and one sample obtained by immunofluorescence staining using an anti-CXCL1 antibody were prepared per mouse. In the HE stained samples, for each sample, a thickness of an epidermis layer was measured at two or more locations with the same magnification field of view, and an average value was statistically analyzed (significant difference: p<0.05, n=3).

[4] = test system: rat intervertebral disc degeneration model; experiment: Rat intervertebral disc degeneration model; type: in vivo; details: 1 mg in 10 μL DMSO injected into degenerated disc on day 14, evaluated day 28
Protocol: A 23G needle was inserted into a caudal intervertebral disc of a 11-weeks-old male SD rat (weight: 300 to 350 g) by about 5 mm, rotated at 360°, and left for 30 seconds to cause intervertebral disc degeneration (day 0). 14 days (day 14) after being subjected to the intervertebral disc degeneration, 10 μL of a DMSO solution containing 1 mg of the compound (3) (database registration number: STK630921) was injected to the degenerated intervertebral disc (STK group=compound (3) treated group). […]
28 days (day 28) after being subjected to the intervertebral disc degeneration, the caudal vertebrae of the rats in the STK group, the Sham group, the degeneration group, and the normal group were collected, fixed in 4% PFA, and decalcified, thereby preparing sample sections. […] In each sample subjected to the immunostaining, the number of IL-6 positive cells in spots of the same area arbitrarily set at 3 or 4 locations in the intervertebral disc tissue was counted with the same magnification field of view, and an expression rate of the IL-6 positive cells with respect to a total number of cells in the same spot was calculated.

[5] = compound 50 μg/ml + IL-17A 50 ng/ml, vs IL-17A only
[6] = inhibitor 10 μM + IL-17A 50 ng/ml

Row | Structure (SMILES) | expression level of mRNA of COX-2 [1, 5] | expression level of mRNA of IL-6 [1, 5] | expression level of mRNA of MMP-3 [1, 5] | expression level of mRNA of MMP-13 [1, 5] | expression level of mRNA of mPGES1 [1, 5] | other results
1 | C[C@H](NC(=O)Cc1nnc(O)c2ccccc12)C(=O)NCC1CCC(C(=O)O)CC1 (some centres unmarked) [(1)] | excellent in the action | – | – | – | – | phosphorylation of p38 ([2]; 15 minutes): reduced; phosphorylation of p38 ([2]; 30 minutes, vs IL-17A single administration group): significant reduction
2 | CC(NC(=O)Cc1nnc(O)c2ccccc12)C(=O)NCC1CCC(C(=O)O)CC1 (centres unmarked) [(3)] | remarkably reduced | remarkably reduced | significantly reduced | significantly reduced | significantly reduced | thickness of the epidermis layer ([3]; DMSO solution containing 1 mg applied day 5 to day 9, skin collected day 10, HE staining): significantly reduced; expression of CXCL1 ([3]; DMSO solution containing 1 mg applied day 5 to day 9, skin collected day 10, immunofluorescence area): significantly reduced; expression rate of the IL-6 positive cells [4]: significantly reduced
3 | COc1ccc(C[C@@]2(C)NC(=O)N(CC(=O)Nc3ccc(N4CCCC4=O)cc3)C2=O)cc1OC [(5)] | significantly reduced | significantly reduced | significantly reduced | significantly reduced | significantly reduced | –
4 | CC(C)NC(=O)CCCCn1c(=O)c2ccccc2n(CC(=O)Nc2ccc3c(c2)OCO3)c1=O [(9)] | – | significantly reduced | – | – | – | –
5 | C=C(C)COc1ccc2c(C)c(CC(=O)N(C)C[C@H](O)[C@H](O)[C@H](O)[C@H](O)CO)c(=O)oc2c1C [(11)] | significantly reduced | significantly reduced | significantly reduced | significantly reduced | significantly reduced | –
6 | COc1cccc(-c2cc(=O)c3ccccc3o2)c1N [PD, PD98059, reference compound] | – | – | – | – | – | expression level of mRNA of COX-2 [1, 6]: significantly suppressed; expression level of mRNA of IL-6 [1, 6]: significantly suppressed
7 | C[S+]([O-])c1ccc(-c2nc(-c3ccncc3)c(-c3ccc(F)cc3)[nH]2)cc1 (centres unmarked) [SB, SB203580, reference compound] | – | – | – | – | – | expression level of mRNA of COX-2 [1, 6]: significantly suppressed; expression level of mRNA of IL-6 [1, 6]: significantly suppressed
